The source of these data is patent publication US5128254A (The United States of America as represented by the …, priority 1989, dated 1992).

For experiment [1], the target named is T1, D2 receptor (long isoform, D2L) (Rattus norvegicus, UniProt P61169). As to the kind of experiment: biochemical. As to conditions: transfected COS-7 cell membranes.
Procedure: (§1) A 2.4-kb Xba I-Xho I fragment containing the entire coding region and most of the D2 receptor cDNA was excised from the pBluescript clone and ligated into the corresponding restriction sites of the pEUK-C1 vector (Clontech, Palo Alto, Calif.) The resulting plasmid, pEUK-D2L, was then transfected into COS-7 cells using a modified CaPO4 precipitation method (Clontech). The cells were treated with 3 mM sodium butyrate after 48 hr and were harvested after 72 hr.
The target of experiment [2] is T1, D2 receptor (long isoform, D2L). The settings on record: competition for [3H]methylspiperone binding.
Procedure: as §1

T1 sequence (P61169 whole entry, canonical isoform): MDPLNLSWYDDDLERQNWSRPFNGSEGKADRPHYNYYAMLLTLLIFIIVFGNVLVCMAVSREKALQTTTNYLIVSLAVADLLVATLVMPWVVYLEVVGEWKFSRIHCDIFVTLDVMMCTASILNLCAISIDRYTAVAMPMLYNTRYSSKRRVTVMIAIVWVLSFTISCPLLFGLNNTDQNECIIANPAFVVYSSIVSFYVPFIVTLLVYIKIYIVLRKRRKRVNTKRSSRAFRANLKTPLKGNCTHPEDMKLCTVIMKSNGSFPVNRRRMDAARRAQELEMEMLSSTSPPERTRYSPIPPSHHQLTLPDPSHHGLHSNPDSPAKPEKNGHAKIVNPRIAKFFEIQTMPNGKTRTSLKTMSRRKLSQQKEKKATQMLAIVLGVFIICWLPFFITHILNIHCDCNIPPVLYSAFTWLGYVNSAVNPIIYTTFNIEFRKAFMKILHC

As for `CN1CN(c2ccccc2)C2(CCN(CCCC(=O)c3ccc(F)cc3)CC2)C1=O` [[3H]methylspiperone], the Kd in experiment [1] (affinity of [3H]methylspiperone saturation binding, mean ± SEM) is 62.1 ± 2.1 pM; in experiment [1] (calculated KD of [3H]methylspiperone binding (Scatchard), one experiment representative of three (FIG. 2A)), 64.1 pM.

As for `NCCc1ccc(O)c(O)c1` [Dopamine], the “effect of guanine nucleotides on competition curve” value in experiment [2] (data not shown) was “not significantly affected by guanine nucleotides”. Further, the “Hill coefficient of competition curve” value in experiment [2] (transfected COS-7 cell membranes) is on record as “≈ 1”.

In general, Kd refers to the equilibrium constant for the complex coming apart.
